Laboratory results as given in PMC4014123 (Acta Crystallographica Section D: Biological Crystallography, 2014).
“Also recorded” adds a separate entry of the source. Like-named read-outs stand apart in the source and are kept apart here.

Target: Cp-NanI (Clostridium perfringens, UniProt A0A0H2YQR1)
Assay: biochemical

Chain of Cp-NanI (A0A0H2YQR1 243-694 limits assumed): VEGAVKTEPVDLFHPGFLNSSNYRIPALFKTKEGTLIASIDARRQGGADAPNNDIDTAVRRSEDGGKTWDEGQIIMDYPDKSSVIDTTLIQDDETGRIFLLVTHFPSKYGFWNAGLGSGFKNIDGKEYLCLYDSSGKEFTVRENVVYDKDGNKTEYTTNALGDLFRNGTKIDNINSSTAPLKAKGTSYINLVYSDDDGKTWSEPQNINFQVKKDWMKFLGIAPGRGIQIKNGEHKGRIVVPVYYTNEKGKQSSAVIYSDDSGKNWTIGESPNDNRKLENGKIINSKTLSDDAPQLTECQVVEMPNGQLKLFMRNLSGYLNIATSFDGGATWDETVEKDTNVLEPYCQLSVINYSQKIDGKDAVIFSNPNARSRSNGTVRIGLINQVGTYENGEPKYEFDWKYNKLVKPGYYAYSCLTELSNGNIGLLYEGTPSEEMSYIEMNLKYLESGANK

`COc1ccc(C2CC(=O)c3c(cc(O)c(C/C=C(\C)CCC=C(C)C)c3O)O2)cc1O` (stereo not shown) [4′-O-Methyldiplacone, 6-[(2E)-3,7-dimethylocta-2,6-dienyl]-5,7-dihydroxy-2-(3-hydroxy-4-methoxyphenyl)-2,3-dihydrochromen-4-one] showed an IC50 of 12.9 µM.
For `CC(C)=CCC/C(C)=C/Cc1c(O)cc2c(c1O)C(=O)C[C@@H](c1ccc(O)cc1)O2` [Mimulone, (2S)-6-[(2E)-3,7-dimethylocta-2,6-dienyl]-5,7-dihydroxy-2-(4-hydroxyphenyl)-2,3-dihydrochromen-4-one], the IC50 was 6.1 µM.
“6-[(2E)-3,7-dimethylocta-2,6-dienyl]-5,7-dihydroxy-2-(3-hydroxy-4-methoxyphenyl)-2,3-dihydrochromen-4-one [3′-O-Methyldiplacone]” showed an IC50 (pH 5, read-out: IC50) of 14.3 µM.
With `CC(C)=CCC/C(C)=C/Cc1c(O)cc2c(c1O)C(=O)CC(c1ccc(O)c(O)c1)O2` (stereo not shown) [Diplacone, 2-(3,4-dihydroxyphenyl)-6-[(2E)-3,7-dimethylocta-2,6-dienyl]-5,7-dihydroxy-2,3-dihydrochromen-4-one] the IC50 was 0.11 µM, the “inhibition kinetics / mechanism” value was “competitive kinetics; also recorded: time-dependent inhibitor” and the “k 5” value was 0.201 ± 0.003 min⁻¹. For the same molecule, the “k 6” value was 0.0017 ± 0.004 min⁻¹, the Ki (K i) was 40 nM and the Ki (K i ^app) was 65 ± 8 nM.
Molecule `O=C1C[C@@H](c2ccc(O)c(O)c2)Oc2cc(O)cc(O)c21` [Eriodictyol, (2S)-2-(3,4-dihydroxyphenyl)-5,7-dihydroxy-4-chroman-one, reference compound] has an IC50 of 16.4 µM.
